We go through 25 compounds from patent US11708348B2, “Protease inhibitors for treatment of coronavirus infections” (The Scripps Research Institute, priority 2021, dated 2023).

Bounds are passed on as bounds.

The test system of one test is SARS-CoV-2 strain USA-WA1/2020. Nature of the test: microbe, parasite or virus in culture. It counts as cell-based. Particulars: Severe acute respiratory syndrome coronavirus 2, HeLa-ACE2, 24 h, HeLa-ACE2 cells, SARS-CoV-2 infection, 24 h; read-out: EC50, uM (Hela).
As usually defined, the EC50 is the concentration at which the effect is half-maximal. In the case of `CNS(=O)(=O)NCC(=O)N1CC2(CC2)C[C@H]1C(=O)N[C@@H](C[C@@H]1CCNC1=O)C(=O)COC(F)(F)F` [Compound 691, (S)-5-((N-methylsulfamoyl)glycyl)-N-((S)-3-oxo-1-((S)-2-oxopyrrolidin-3-yl)-4-(trifluoromethoxy)butan-2-yl)-5-azaspiro[2.4]heptane-6-carboxamide], the half-maximal effective concentration (EC50) fell in the range of 0.5 to 1 µM.
The same measure, in the same setting: with `CN(C)S(=O)(=O)NCC(=O)N1CC2(CC2)C[C@H]1C(=O)N[C@@H](C[C@@H]1CCNC1=O)C(=O)COC(F)(F)F` [Compound 692, (S)-5-((N,N-dimethylsulfamoyl)glycyl)-N-((S)-3-oxo-1-((S)-2-oxopyrrolidin-3-yl)-4-(trifluoromethoxy)butan-2-yl)-5-azaspiro[2.4]heptane-6-carboxamide] the figure was 0.2 to 0.5 µM.
Same read-out and setting: with `CN(C)S(=O)(=O)N(C)CC(=O)N1CC2(CC2)C[C@H]1C(=O)N[C@@H](C[C@@H]1CCNC1=O)C(=O)COC(F)(F)F` [Compound 693, (S)-5-(N-(N,N-dimethylsulfamoyl)-N-methylglycyl)-N-((S)-3-oxo-1-((S)-2-oxopyrrolidin-3-yl)-4-(trifluoromethoxy)butan-2-yl)-5-azaspiro[2.4]heptane-6-carboxamide] the figure was 0.2 to 0.5 µM; with `O=C1NCC[C@H]1C[C@H](NC(=O)[C@@H]1CC2(CC2)CN1C(=O)c1ccccc1)C(=O)COC(F)(F)F` [Compound 694, (S)-5-benzoyl-N-((S)-3-oxo-1-((S)-2-oxopyrrolidin-3-yl)-4-(trifluoromethoxy)butan-2-yl)-5-azaspiro[2.4]heptane-6-carboxamide], 0.05 to 0.2 µM; with `CC(C)Cn1cc(C(=O)N2CC3(CC3)C[C@H]2C(=O)N[C@@H](C[C@@H]2CCNC2=O)C(=O)COC(F)(F)F)nn1` [Compound 695, (S)-5-(1-isobutyl-1H-1,2,3-triazole-4-carbonyl)-N-((S)-3-oxo-1-((S)-2-oxopyrrolidin-3-yl)-4-(trifluoromethoxy)butan-2-yl)-5-azaspiro[2.4]heptane-6-carboxamide], 0.05 to 0.2 µM.
The same measure, in the same setting: as for `C[C@@H](O)C(=O)N1CC2(CC2)C[C@H]1C(=O)N[C@@H](C[C@@H]1CCNC1=O)C(=O)COC(F)(F)F` [Compound 697, (S)-5-((R)-2-hydroxypropanoyl)-N-((S)-3-oxo-1-((S)-2-oxopyrrolidin-3-yl)-4-(trifluoromethoxy)butan-2-yl)-5-azaspiro[2.4]heptane-6-carboxamide], the figure is 0.05 to 0.2 µM; as for `O=C1NCC[C@H]1C[C@H](NC(=O)[C@@H]1CC2(CC2)CN1C(=O)CO)C(=O)COC(F)(F)F` [Compound 698, (S)-5-(2-hydroxyacetyl)-N-((S)-3-oxo-1-((S)-2-oxopyrrolidin-3-yl)-4-(trifluoromethoxy)butan-2-yl)-5-azaspiro[2.4]heptane-6-carboxamide], 0.05 to 0.2 µM.
On to `O=C1NCC[C@H]1C[C@H](NC(=O)[C@@H]1CC2(CC2)CN1C(=O)c1cc(F)cc(F)c1)C(=O)COC(F)(F)F` [Compound 699, (S)-5-(3,5-difluorobenzoyl)-N-((S)-3-oxo-l-((S)-2-oxopyrrolidin-3-yl)-4-(trifluoromethoxy)butan-2-yl)-5-azaspiro[2.4]heptane-6-carboxamide], for which the concentration giving a half-maximal response (EC50) lay in the range of 0.05 to 0.2 µM.
For the compound `C[C@](O)(C(=O)N1CC2(CC2)C[C@H]1C(=O)N[C@@H](C[C@@H]1CCNC1=O)C(=O)COC(F)(F)F)C(F)(F)F` [Compound 700, (S)-N-((S)-3-oxo-1-((S)-2-oxopyrrolidin-3-yl)-4-(trifluoromethoxy)butan-2-yl)-5-((S)-3,3,3-trifluoro-2-hydroxy-2-methylpropanoyl)-5-azaspiro[2.4]heptane-6-carboxamide], the concentration giving a half-maximal response (EC50) was in the range of 0.05 to 0.2 µM.
Still for that read-out and setting: with `O=C1NCC[C@H]1C[C@H](NC(=O)[C@@H]1CC2(CC2)CN1C(=O)CC1CC(F)(F)C1)C(=O)COC(F)(F)F` [Compound 701, (S)-5-(2-(3,3-difluorocyclobutyl)acetyl)-N-((S)-3-oxo-1-((S)-2-oxopyrrolidin-3-yl)-4-(trifluoromethoxy)butan-2-yl)-5-azaspiro[2.4]heptane-6-carboxamide] the figure was less than 0.05 µM; with `O=C1NCC[C@H]1C[C@H](NC(=O)[C@@H]1CC2(CC2)CN1C(=O)c1ccc(Cl)cc1F)C(=O)COC(F)(F)F` [Compound 702, (S)-5-(4-chloro-2-fluorobenzoyl)-N-((S)-3-oxo-1-((S)-2-oxopyrrolidin-3-yl)-4-(trifluoromethoxy)butan-2-yl)-5-azaspiro[2.4]heptane-6-carboxamide], 0.05 to 0.2 µM.
On the same count and under the same terms, with `CC(C)C(=O)N1CC2(CC2)C[C@H]1C(=O)N[C@@H](C[C@@H]1CCNC1=O)C(=O)COC(F)(F)F` [Compound 704, (S)-5-isobutyryl-N-((S)-3-oxo-1-((S)-2-oxopyrrolidin-3-yl)-4-(trifluoromethoxy)butan-2-yl)-5-azaspiro[2.4]heptane-6-carboxamide] the figure was 0.05 to 0.2 µM.
Take `CCCC(=O)N1CC2(CC2)C[C@H]1C(=O)N[C@@H](C[C@@H]1CCNC1=O)C(=O)COC(F)(F)F` [Compound 705, (S)-5-butyryl-N-((S)-3-oxo-1-((S)-2-oxopyrrolidin-3-yl)-4-(trifluoromethoxy)butan-2-yl)-5-azaspiro[2.4]heptane-6-carboxamide]: the concentration giving a half-maximal response (EC50) fell in the range of 0.2 to 0.5 µM.
Still for that read-out and setting: with `CC(C)CC(=O)N1CC2(CC2)C[C@H]1C(=O)N[C@@H](C[C@@H]1CCNC1=O)C(=O)COC(F)(F)F` [Compound 707, (S)-5-(3-methylbutanoyl)-N-((S)-3-oxo-1-((S)-2-oxopyrrolidin-3-yl)-4-(trifluoromethoxy)butan-2-yl)-5-azaspiro[2.4]heptane-6-carboxamide] the figure was 0.05 to 0.2 µM; with `CCCCCC(=O)N1CC2(CC2)C[C@H]1C(=O)N[C@@H](C[C@@H]1CCNC1=O)C(=O)COC(F)(F)F` [Compound 708, (S)-5-hexanoyl-N-((S)-3-oxo-1-((S)-2-oxopyrrolidin-3-yl)-4-(trifluoromethoxy)butan-2-yl)-5-azaspiro[2.4]heptane-6-carboxamide], 0.05 to 0.2 µM.
On the same count and under the same terms, with `CC(=O)N[C@@H](CC(C)C)C(=O)N[C@@H](C[C@@H]1CCNC1=O)C(=O)COC(F)(F)F` [Compound 709, (S)-2-acetamido-4-methyl-N-((S)-3-oxo-l-((S)-2-oxopyrrolidin-3-yl)-4-(trifluoromethoxy)butan-2-yl)pentanamide] the figure was 0.2 to 0.5 µM; with `O=C1NCC[C@H]1C[C@H](NC(=O)[C@@H]1CC2(CC2)CN1C(=O)c1ccc(F)cc1F)C(=O)COC(F)(F)F` [Compound 710, (S)-5-(2,4-difluorobenzoyl)-N-((S)-3-oxo-l-((S)-2-oxopyrrolidin-3-yl)-4-(trifluoromethoxy)butan-2-yl)-5-azaspiro[2.4]heptane-6-carboxamide], 0.2 to 0.5 µM.
Same read-out and setting: as for `CC1(CC(=O)N2CC3(CC3)C[C@H]2C(=O)N[C@@H](C[C@@H]2CCNC2=O)C(=O)COC(F)(F)F)CCCC1` [Compound 711, (S)-5-(2-(l-methylcyclopentyl)acetyl)-N-((S)-3-oxo-1-((S)-2-oxopyrrolidin-3-yl)-4-(trifluoromethoxy)butan-2-yl)-5-azaspiro[2.4]heptane-6-carboxamide], the figure is less than 0.05 µM; as for `CC(C)C(F)(F)CC(=O)N1CC2(CC2)C[C@H]1C(=O)N[C@@H](C[C@@H]1CCNC1=O)C(=O)COC(F)(F)F` [Compound 712, (S)-5-(3,3-difluoro-4-methylpentanoyl)-N-((S)-3-oxo-1-((S)-2-oxopyrrolidin-3-yl)-4-(trifluoromethoxy)butan-2-yl)-5-azaspiro[2.4]heptane-6-carboxamide], less than 0.05 µM.
Regarding `CC(F)(F)C(F)(F)CC(=O)N1CC2(CC2)C[C@H]1C(=O)N[C@@H](C[C@@H]1CCNC1=O)C(=O)COC(F)(F)F` [Compound 713, (S)-N-((S)-3-oxo-1-((S)-2-oxopyrrolidin-3-yl)-4-(trifluoromethoxy)butan-2-yl)-5-(3,3,4,4-tetrafluoropentanoyl)-5-azaspiro[2.4]heptane-6-carboxamide], the half-maximal effective concentration (EC50) was in the range of 0.05 to 0.2 µM.
As to `CC(C)C(F)(F)C(=O)N1CC2(CC2)C[C@H]1C(=O)N[C@@H](C[C@@H]1CCNC1=O)C(=O)COC(F)(F)F` [Compound 714, (S)-5-(2,2-difluoro-3-methylbutanoyl)-N-((S)-3-oxo-1-((S)-2-oxopyrrolidin-3-yl)-4-(trifluoromethoxy)butan-2-yl)-5-azaspiro[2.4]heptane-6-carboxamide], the concentration giving a half-maximal response (EC50) was less than 0.05 µM.
Same read-out and setting: as for `CC1(C)[C@@H]2[C@@H](C(=O)N[C@H](C[C@@H]3CCNC3=O)C(=O)COC(F)(F)F)N(C(=O)[C@H](O)c3ccccc3)C[C@@H]21` [Compound 715, (1R,2S,5S)-3-((R)-2-hydroxy-2-phenylacetyl)-6,6-dimethyl-N-((R)-3-oxo-1-((S)-2-oxopyrrolidin-3-yl)-4-(trifluoromethoxy)butan-2-yl)-3-azabicyclo[3.1.0]hexane-2-carboxamide], the figure is 0.05 to 0.2 µM; as for `CC[C@@H](OC(F)(F)F)C(=O)N1CC2(CC2)C[C@H]1C(=O)N[C@@H](C[C@@H]1CCNC1=O)C(=O)COC(F)(F)F` [Compound 716, (S)-N-((S)-3-oxo-1-((S)-2-oxopyrrolidin-3-yl)-4-(trifluoromethoxy)butan-2-yl)-5-((R)-2-(trifluoromethoxy)butanoyl)-5-azaspiro[2.4]heptane-6-carboxamide], 0.05 to 0.2 µM.

The same test, now with this note: Severe acute respiratory syndrome coronavirus 2, HeLa-ACE2, 24 h; read-out: EC50, uM (Hela).
Regarding `CC(C)C[C@@H](O)C(=O)N1CCC[C@H]1C(=O)N[C@@H](C[C@@H]1CCNC1=O)C(=O)COC(F)(F)F` [Compound 696, (S)-1-((R)-2-hydroxy-4-methylpentanoyl)-N-((S)-3-oxo-1-((S)-2-oxopyrrolidin-3-yl)-4-(trifluoromethoxy)butan-2-yl)pyrrolidine-2-carboxamide], the concentration giving a half-maximal response (EC50) was in the range of 0.05 to 0.2 µM.
For the compound `O=C1NCC[C@H]1C[C@H](NC(=O)[C@@H]1CC2(CC2)CN1C(=O)C(F)(F)F)C(=O)COC(F)(F)F` [Compound 703, (S)-N-((S)-3-oxo-1-((S)-2-oxopyrrolidin-3-yl)-4-(trifluoromethoxy)butan-2-yl)-5-(2,2,2-trifluoroacetyl)-5-azaspiro[2.4]heptane-6-carboxamide], the EC50 lay within 0.2 to 0.5 µM.
